According to the supplement of paper PMC10307832:

Experiments:
Experiment in all cases: relative viability (nuclei count vs DMSO), 5 days (fraction); higher = more cells survive
Darinaparsin + Dasatinib = compound: C[As](C)SC[C@H](NC(=O)CC[C@H](N)C(=O)O)C(=O)NCC(=O)O [Darinaparsin] + Cc1nc(Nc2ncc(C(=O)Nc3c(C)cccc3Cl)s2)cc(N2CCN(CCO)CC2)n1 [Dasatinib] (partner 0.075 µM)
Method in brief: (§1)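 Nuclei were stained with Hoechst during a one-step fixation (final 0.05% Triton X-100, 1% formaldehyde, 1 ug/ml Hoechst) carried out 5 days after dosing, then counted on 4× images. The cells, lung cancer lines in 1536-well plates, had been dosed by pin tool the day after seeding with one drug alone or a fixed anchor-drug dose plus five library-drug doses (not always all listed) in √10 steps. Relative viability is the nuclei count in treated wells divided by that in vehicle wells, and each value is the median of duplicate plates.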

QS11 + Linsitinib = compound: C1CC2=C(C1)C=C(C=C2)OC3=NC(=C4C(=N3)N(C=N4)CC5=CC=C(C=C5)C6=CC=CC=C6)N[C@@H](CC7=CC=CC=C7)CO [QS11] + C[C@]1(O)C[C@@H](c2nc(-c3ccc4ccc(-c5ccccc5)nc4c3)c3c(N)nccn32)C1 [Linsitinib] (partner 1 µM)
Method in brief: as §1

QS11 + Phenformin = compound: C1CC2=C(C1)C=C(C=C2)OC3=NC(=C4C(=N3)N(C=N4)CC5=CC=C(C=C5)C6=CC=CC=C6)N[C@@H](CC7=CC=CC=C7)CO [QS11] + N=C(N)NC(=N)NCCc1ccccc1 [Phenformin] (partner 250 µM)
Method in brief: as §1

QS11 + Bortezomib = compound: C1CC2=C(C1)C=C(C=C2)OC3=NC(=C4C(=N3)N(C=N4)CC5=CC=C(C=C5)C6=CC=CC=C6)N[C@@H](CC7=CC=CC=C7)CO [QS11] + CC(C)C[C@H](NC(=O)[C@H](Cc1ccccc1)NC(=O)c1cnccn1)B(O)O [Bortezomib] (partner 0.002 µM)
Method in brief: as §1

| Cell Line | relative viability (Darinaparsin + Dasatinib; first compound 0.08 µM) | relative viability (Darinaparsin + Dasatinib; first compound 0.8 µM) | relative viability (Darinaparsin + Dasatinib; first compound 2.53 µM) | relative viability (Darinaparsin + Dasatinib; first compound 8 µM) | relative viability (QS11 + Linsitinib; first compound 0.08 µM) | relative viability (QS11 + Linsitinib; first compound 0.253 µM) | relative viability (QS11 + Linsitinib; first compound 0.8 µM) | relative viability (QS11 + Linsitinib; first compound 2.53 µM) | relative viability (QS11 + Linsitinib; first compound 8 µM) | relative viability (QS11 + Phenformin; first compound 0.08 µM) | relative viability (QS11 + Phenformin; first compound 0.253 µM) | relative viability (QS11 + Phenformin; first compound 0.8 µM) | relative viability (QS11 + Phenformin; first compound 2.53 µM) | relative viability (QS11 + Phenformin; first compound 8 µM) | relative viability (QS11 + Bortezomib; first compound 0.08 µM) | relative viability (QS11 + Bortezomib; first compound 0.253 µM) | relative viability (QS11 + Bortezomib; first compound 0.8 µM) | relative viability (QS11 + Bortezomib; first compound 2.53 µM) | relative viability (QS11 + Bortezomib; first compound 8 µM) |
| --- | --- | --- | --- | --- | --- | --- | --- | --- | --- | --- | --- | --- | --- | --- | --- | --- | --- | --- | --- |
| HCC-827 | 0.268 | 0.397 | 0.243 | 0.309 | 0.977 | 1.04 | 0.877 | 0.929 | 0.821 | 0.447 | 0.416 | 0.366 | 0.478 | 0.547 | 1.06 | 1.09 | 0.937 | 0.962 | 1.04 |
| NCI-H1666 | 0.817 | 0.814 | 0.799 | 0.832 | 0.853 | 0.644 | 0.644 | 0.53 | 0.464 | 0.556 | 0.519 | 0.55 | 0.479 | 0.398 | 0.83 | 0.722 | 0.74 | 0.719 | 0.564 |
| NCI-H322M | 0.269 | 0.233 | 0.251 | 0.257 | 0.93 | 0.914 | 0.931 | 1.02 | 0.936 | 0.784 | 0.824 | 0.803 | 0.877 | 1.06 | 1.31 | 1.04 | 1.27 | 1.4 | 1.63 |
| NCI-H838 | 0.301 | 0.286 | 0.271 | 0.338 | 1.07 | 0.879 | 0.7 | 0.837 | 0.851 | 0.629 | 0.468 | 0.519 | 0.517 | 0.531 | 0.942 | 0.641 | 0.684 | 0.851 | 0.923 |
| NCI-H2228 | 0.71 | 0.606 | 0.447 | 0.686 | 0.658 | 0.555 | 0.809 | 0.834 | 0.797 | 0.259 | 0.325 | 0.407 | 0.479 | 0.452 | 0.974 | 1.04 | 1.15 | 1.26 | 1.12 |
| NCI-H596 | 0.624 | 0.625 | 0.632 | 0.566 | 1.04 | 1.02 | 1.01 | 1.1 | 1.16 | 0.736 | 0.81 | 0.804 | 0.832 | 0.874 |  | 0.807 | 1.15 | 0.869 | 1.06 |
| NCI-H647 | 0.21 | 0.205 | 0.149 | 0.233 | 1.12 | 1.21 | 1.17 | 1.21 | 1.23 | 0.372 | 0.57 | 0.514 | 0.478 | 0.527 | 0.938 | 0.987 | 0.976 | 1.08 | 0.894 |
| NCI-H441 | 0.6 | 0.581 | 0.558 | 0.737 | 0.519 | 0.544 | 0.613 | 0.561 | 0.601 | 0.861 | 0.958 | 0.71 | 1.01 | 0.884 | 0.437 | 0.536 | 0.475 | 0.444 | 0.299 |
